Values after ≈ are worked out from the molar mass of the structure shown. Values joined by “and” are separate entries in the source; they are usually repeats but may differ in a detail not shown here. Equal entries are not always repeated. Where two headings read alike, the source gives them in different places. One block for each molecule: values may come before it.
Columns and labels:
MCF-10A = experiment: MTT cytotoxicity assay, nonmalignant MCF-10A; settings: read-out: MCF-10A IC50; MTT, nonmalignant MCF-10A;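 also: MTT assay with absorbance read at 570 nm after 48 h exposure of cells to serial compound concentrations at 37 °C, testing selectivity against nonmalignant versus cancer cells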
in vitro = settings: human, MCF-10A cells (nonmalignant breast)
MCF-7 = experiment: MTT cytotoxicity assay, MCF-7; settings: for IC50: Homo sapiens; for anti-proliferative activity against MCF-7 (in words): SAR discussion
EGFR = EGFR (Homo sapiens, UniProt P00533); experiment: In vitro EGFR enzyme inhibition assay (ELISA); settings: for EGFR %inh: lab report 01-11-2021
EGFR, sequence (P00533 25-1210): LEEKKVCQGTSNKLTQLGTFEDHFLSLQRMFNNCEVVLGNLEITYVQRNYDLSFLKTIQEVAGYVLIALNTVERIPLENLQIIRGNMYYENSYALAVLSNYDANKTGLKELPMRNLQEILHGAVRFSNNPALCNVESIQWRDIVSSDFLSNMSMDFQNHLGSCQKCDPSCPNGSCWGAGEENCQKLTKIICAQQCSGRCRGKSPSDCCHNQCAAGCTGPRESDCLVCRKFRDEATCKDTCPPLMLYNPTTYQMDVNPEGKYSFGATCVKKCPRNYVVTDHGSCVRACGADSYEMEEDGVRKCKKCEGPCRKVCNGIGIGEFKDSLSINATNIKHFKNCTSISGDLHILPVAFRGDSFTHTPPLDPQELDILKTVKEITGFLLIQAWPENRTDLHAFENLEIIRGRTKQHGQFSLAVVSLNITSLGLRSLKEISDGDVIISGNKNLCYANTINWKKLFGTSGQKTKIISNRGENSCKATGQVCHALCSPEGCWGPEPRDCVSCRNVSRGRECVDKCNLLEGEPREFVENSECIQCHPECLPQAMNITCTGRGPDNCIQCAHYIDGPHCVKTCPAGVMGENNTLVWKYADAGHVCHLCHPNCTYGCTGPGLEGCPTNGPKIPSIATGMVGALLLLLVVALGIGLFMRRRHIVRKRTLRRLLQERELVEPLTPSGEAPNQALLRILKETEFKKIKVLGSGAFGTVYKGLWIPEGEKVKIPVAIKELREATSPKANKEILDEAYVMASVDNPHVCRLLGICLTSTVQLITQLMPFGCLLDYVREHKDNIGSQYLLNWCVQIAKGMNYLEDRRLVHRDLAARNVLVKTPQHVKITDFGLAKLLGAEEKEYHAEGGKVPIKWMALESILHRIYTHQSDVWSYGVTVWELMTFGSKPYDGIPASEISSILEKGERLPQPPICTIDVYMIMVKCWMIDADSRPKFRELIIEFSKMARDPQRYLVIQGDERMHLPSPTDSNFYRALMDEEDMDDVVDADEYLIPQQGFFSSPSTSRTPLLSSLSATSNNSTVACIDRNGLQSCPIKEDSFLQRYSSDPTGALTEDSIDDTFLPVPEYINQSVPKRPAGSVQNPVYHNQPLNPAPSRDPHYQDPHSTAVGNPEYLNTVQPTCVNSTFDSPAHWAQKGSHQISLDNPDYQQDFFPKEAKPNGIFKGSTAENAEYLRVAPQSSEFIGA

MDA-MB-231 [1] = experiment: MTT cytotoxicity assay, MDA-MB-231; settings: for IC50: Homo sapiens; for % viability: MDA; for anti-proliferative activity against MDA-MB-231 (in words): SAR discussion
Bax = Bax level (ELISA) in treated cells; type: cell-based, human; settings: MDA-MB-231 cells
Caspase-9 = Caspase-9 level (ELISA) in treated cells; type: cell-based, human; settings: MDA-MB-231 cells
MDA-MB-231 [2] = experiment: DNA flow cytometric cell cycle analysis, MDA-MB-231; type: cell-based, human
MDA-MB-231 [3] = experiment: Annexin V-FITC/PI dual staining apoptosis assay, MDA-MB-231; type: cell-based, human
Bcl-2 = Bcl-2 level (ELISA) in treated cells; type: cell-based, human; settings: MDA-MB-231 cells
[4] = MCF7, read-out: cytotoxicity_IC50 mcf7
[5] = EGFR IC50, lab report 01-11-2021, 10 compounds
[6] = MDA-MB-231, read-out: MDA-MBA-231 IC50
[7] = MDA-MB-231, read-out: cytotoxicity_IC50 MDA
[8] = MDA-MB-231, compared to control

- IC50 at 48 h (in vitro): 41.9 ± 2.04 µg/mL (≈ 101 µM)
- IC50 (EGFR; [5]): 0.333 µM
- IC50 (EGFR; EGFR inhibition IC50): 0.341 ± 0.019 µM
- EGFR %inh (EGFR; conc 0.01 (unit not given)): 30%
- EGFR %inh (EGFR; conc 0.1 (unit not given)): 42%
- EGFR %inh (EGFR; conc 1 (unit not given)): 67%
- EGFR %inh (EGFR; conc 10 (unit not given)): 89%
- Percentage above Reference IC50 (potency relative to erlotinib) (EGFR; reference Erlotinib): 24.633%
SMILES: O=C(COc1ccc2c(COC(=O)c3ccccc3)cc(=O)oc2c1)c1ccccc1 [Compound 7, [2-Oxo-7-(2-oxo-2-phenylethoxy)-2H-chromen-4-yl]methyl benzoate]
- IC50 (MCF-10A): 101 ± 2.04 µM
- viability at 48 h, 0.4 ug (in vitro): 78.3%
- viability at 48 h, 1.6 ug (in vitro): 71.5%
- viability at 48 h, 6.25 ug (in vitro): 59.2%
- viability at 48 h, 25 ug (in vitro): 53.7%
- viability at 48 h, 100 ug (in vitro): 45.1%
- IC50 (MCF-7; MCF7, read-out: MCF-7 IC50): 77.5 ± 1.94 µM
- IC50 (MCF-7; [4]): 32.1 ± 1.94 µg/mL
- % viability (MCF-7; MCF7, 0.4ug): 83.43%
- % viability (MCF-7; MCF7, 1.6ug): 71.93%
- % viability (MCF-7; MCF7, 6.3ug): 62.508%
- % viability (MCF-7; MCF7, 25ug): 52.7829%
- % viability (MCF-7; MCF7, 100ug): 40.856%
- anti-proliferative activity against MCF-7 (in words) (MCF-7): diminished the activity
- IC50 (MDA-MB-231 [1]; [6]): 56.7 ± 1.28 µM
- IC50 (MDA-MB-231 [1]; [7]): 23.5 ± 1.28 µg/mL
- % viability (MDA-MB-231 [1]; 0.4ug (log conc. -0.41)): 75.96%
- % viability (MDA-MB-231 [1]; 1.6ug (log conc. 0.19)): 68.64%
- % viability (MDA-MB-231 [1]; 6.25ug (log conc. 0.8)): 59.243%
- % viability (MDA-MB-231 [1]; 100ug (log conc. 2)): 38.991%
- anti-proliferative activity against MDA-MB-231 (in words) (MDA-MB-231 [1]): poor anti-proliferative activity

- IC50 at 48 h (in vitro): 135 ± 6.56 µg/mL (≈ 301 µM)
- IC50 (EGFR; [5]): 0.131 µM
- IC50 (EGFR; EGFR inhibition IC50): 0.131 ± 0.009 µM
- Percentage above Reference IC50 (potency relative to erlotinib) (EGFR; reference Erlotinib): 64.122%
SMILES: O=C(COc1ccc2c(COC(=O)c3ccc(Cl)cc3)cc(=O)oc2c1)c1ccccc1 [Compound 9, [2-Oxo-7-(2-oxo-2-phenylethoxy)-2H-chromen-4-yl]methyl 4-chlorobenzoate]
- IC50 (MCF-10A): 301 ± 6.56 µM
- viability at 48 h, 0.4 ug (in vitro): 90.6%
- viability at 48 h, 1.6 ug (in vitro): 79.6%
- viability at 48 h, 6.25 ug (in vitro): 70.3%
- viability at 48 h, 25 ug (in vitro): 61.8%
- viability at 48 h, 100 ug (in vitro): 52.3%
- IC50 (MCF-7; MCF7, read-out: MCF-7 IC50): 100 ± 2.73 µM
- IC50 (MCF-7; [4]): 45 ± 2.73 µg/mL
- % viability (MCF-7; MCF7, 0.4ug): 77.17%
- % viability (MCF-7; MCF7, 1.6ug): 70.74%
- % viability (MCF-7; MCF7, 6.3ug): 62.232%
- % viability (MCF-7; MCF7, 25ug): 54.2277%
- % viability (MCF-7; MCF7, 100ug): 44.25%
- anti-proliferative activity against MCF-7 (in words) (MCF-7): diminished the activity
- IC50 (MDA-MB-231 [1]; [6]): 10.4 ± 0.25 µM
- IC50 (MDA-MB-231 [1]; [7]): 4.65 ± 0.25 µg/mL
- anti-proliferative activity against MDA-MB-231 (in words) (MDA-MB-231 [1]): poor anti-proliferative activity

- IC50 at 48 h (in vitro): 37.1 ± 1.81 µg/mL (≈ 76.8 µM)
- IC50 (EGFR; [5]): 0.0869 µM
- IC50 (EGFR; EGFR inhibition IC50): 0.086 ± 0.006 µM
- Percentage above Reference IC50 (potency relative to erlotinib) (EGFR; reference Erlotinib): 97.67% and 97.674%
SMILES: O=C(COc1ccc2c(COC(=O)c3ccc(Cl)cc3)cc(=O)oc2c1)c1ccc(Cl)cc1 [Compound 10, {7-[2-(4-Chlorophenyl)-2-oxoethoxy]-2-oxo-2H-chromen-4-yl}methyl 4-chlorobenzoate]
- IC50 (MCF-10A): 76.8 ± 1.81 µM
- viability at 48 h, 0.4 ug (in vitro): 82.6%
- viability at 48 h, 1.6 ug (in vitro): 69.1%
- viability at 48 h, 6.25 ug (in vitro): 61.1%
- viability at 48 h, 25 ug (in vitro): 52.6%
- viability at 48 h, 100 ug (in vitro): 44.4%
- IC50 (MCF-7; MCF7, read-out: MCF-7 IC50): 95.8 ± 2.81 µM
- IC50 (MCF-7; [4]): 46.3 ± 2.81 µg/mL
- % viability (MCF-7; MCF7, 0.4ug): 85.616%
- % viability (MCF-7; MCF7, 1.6ug): 73.288%
- % viability (MCF-7; MCF7, 6.3ug): 64.521%
- % viability (MCF-7; MCF7, 25ug): 54.315%
- % viability (MCF-7; MCF7, 100ug): 44.863%
- Bax Conc (Bax): 0.249±0.0079^be ng/ml
- Caspase-9 Conc. (Caspase-9): 16.77±0.37^be ng/ml
- Comment (cell cycle phase of growth arrest) (MDA-MB-231 [2]; MDA): cell growth arrest@ S
- DNA content %G0-G1 (MDA-MB-231 [2]; MDA): 51.97%
- DNA content %Pre-G1 (MDA-MB-231 [2]; MDA): 33.43%
- DNA content %S (MDA-MB-231 [2]; MDA): 43.82%
- %G0-G1 (MDA-MB-231 [2]; MDA-MB-231, IC50 concentration): 51.97^ad ^AC %
- %Pre-G1 (MDA-MB-231 [2]; MDA-MB-231, IC50 concentration): 33.43^bdf ^AB %
- %S (MDA-MB-231 [2]; MDA-MB-231, IC50 concentration): 43.82^bc ^D %
- cell cycle arrest at S phase (MDA-MB-231 [2]; [8]): 1.59 folds
- increase of apoptotic cells in pre-G1 phase (MDA-MB-231 [2]; [8]): 16.22 folds
- Apoptosis Early (MDA-MB-231 [3]; MDA): 9.61
- Apoptosis Late (MDA-MB-231 [3]; MDA): 17.83
- Apoptosis Total (MDA-MB-231 [3]; MDA): 33.43
- Necrosis (MDA-MB-231 [3]; MDA): 5.99
- % Apoptosis Early (MDA-MB-231 [3]; MDA-MB-231): 9.61^df %
- % Apoptosis Late (MDA-MB-231 [3]; MDA-MB-231): 17.83^df %
- % Apoptosis Total (MDA-MB-231 [3]; MDA-MB-231): 33.43% and 33.43^df %
- % Necrosis (MDA-MB-231 [3]; MDA-MB-231): 5.99%
- Bcl-2 Conc (Bcl-2): 4.088±0.058^cf ng/ml
- IC50 (MDA-MB-231 [1]; [6]): 2.3 ± 0.06 µM
- IC50 (MDA-MB-231 [1]; [7]): 1.09 ± 0.06 µg/mL
- % viability (MDA-MB-231 [1]; 0.4ug (log conc. -0.41)): 56.384%
- % viability (MDA-MB-231 [1]; 1.6ug (log conc. 0.19)): 47.375%
- % viability (MDA-MB-231 [1]; 6.25ug (log conc. 0.8)): 40.274%
- % viability (MDA-MB-231 [1]; 25ug (log conc. 1.4)): 30.609%
- % viability (MDA-MB-231 [1]; 100ug (log conc. 2)): 23.5084%

- IC50 at 48 h (in vitro): 79.2 ± 3.86 µg/mL (≈ 178 µM)
- IC50 (EGFR; EGFR IC50, lab report 01-09-2021, 04 compounds, reference Erlotinib): 1.83 µM
- IC50 (EGFR; EGFR inhibition IC50): 1.83 ± 0.038 µM
- inhibition at 10 pg/mL (EGFR; read-out: EGFR %inh): 7.8%
- inhibition at 0.0001 µg/mL (EGFR; read-out: EGFR %inh): 23%
- inhibition at 0.001 µg/mL (EGFR; read-out: EGFR %inh): 54%
- inhibition at 0.01 µg/mL (EGFR; read-out: EGFR %inh): 76%
- Percentage above Reference IC50 (potency relative to erlotinib) (EGFR; reference Erlotinib): 7.91%
SMILES: COc1ccccc1C(=O)OCc1cc(=O)oc2cc(OCC(=O)c3ccccc3)ccc12 [Compound 11, [2-Oxo-7-(2-oxo-2-phenylethoxy)-2H-chromen-4-yl]methyl 2-methoxybenzoate]
- IC50 (MCF-10A): 178 ± 3.86 µM
- viability at 48 h, 0.4 ug (in vitro): 84.2%
- viability at 48 h, 1.6 ug (in vitro): 76.6%
- viability at 48 h, 6.25 ug (in vitro): 66.5%
- viability at 48 h, 25 ug (in vitro): 58.4%
- viability at 48 h, 100 ug (in vitro): 47.8%
- IC50 (MCF-7; MCF7, read-out: MCF-7 IC50): 131 ± 3.52 µM
- IC50 (MCF-7; [4]): 58.1 ± 3.52 µg/mL
- % viability (MCF-7; MCF7, 0.4ug): 86.03%
- % viability (MCF-7; MCF7, 1.6ug): 75.27%
- % viability (MCF-7; MCF7, 6.3ug): 65.137%
- % viability (MCF-7; MCF7, 25ug): 57.0548%
- % viability (MCF-7; MCF7, 100ug): 45.822%
- anti-proliferative activity against MCF-7 (in words) (MCF-7): diminished the activity
- IC50 (MDA-MB-231 [1]; [6]): 61.2 ± 1.48 µM
- IC50 (MDA-MB-231 [1]; [7]): 27.2 ± 1.48 µg/mL
- % viability (MDA-MB-231 [1]; 0.4ug (log conc. -0.41)): 73.69%
- % viability (MDA-MB-231 [1]; 1.6ug (log conc. 0.19)): 66.71%
- % viability (MDA-MB-231 [1]; 6.25ug (log conc. 0.8)): 58.055%
- % viability (MDA-MB-231 [1]; 25ug (log conc. 1.4)): 52.2673%
- % viability (MDA-MB-231 [1]; 100ug (log conc. 2)): 41.289%
- anti-proliferative activity against MDA-MB-231 (in words) (MDA-MB-231 [1]): poor anti-proliferative activity
